The assay concerns facial Rosacea. The experiment in a line: clinical type observations of topical application in facial Rosacea. In kind it is in vivo.

With `S=[Se]=S` [selenium sulfide], the “redness, small dilated blood vessels and small red bumps characterizing the facial Rosacea” value (clinical type observations) was “observed to be decreased”. For the same compound, the “effectiveness in facial Rosacea” value (fluid form selenium sulfide of 1% strength) is given as “Effective in most instances”. In addition, the “redness, flushing and inflammation associated with facial Rosacea and skin erythema” value (topical application, clinical type observations) is reported as “effective in significantly reducing”.
